Assay results reported in patent US12535460B2, “Small molecule detection in normal ionic strength buffers” (ARIZONA BOARD OF REGENTS ON BEHALF OF ARIZONA STATE …, priority 2020, dated 2026).

Experiments:
GPR55 [1] = target: T1, GPR55 (Homo sapiens, UniProt Q9Y2T6); assay: VirD oscillator method, Tocrifluor/GPR55 pair in diluted buffer; type: binding
From the text: To study the impact of buffer ionic strength on the binding kinetics, the binding results in 1×PBS were compared with results measured in a more diluted buffer solution (40 times diluted 1×PBS) for the same experiments performed with ADRB2-B2 antagonist pair. The solid lines in FIG. 7 show the global fitting of the data with first-order kinetic model. […] Both of the GPCR binding pairs measured involve electrostatic interactions, since the reported binding site of GPR55 is hydrophilic, and ADRB2 is partially hydrophilic. Thus, the affinity measured under normal and diluted PBS are different. […] Due at least in part to the strong ionic screening effect in normal ionic strength buffer, the signal intensity is reduced to about half of the measurement in low ionic strength buffer while the noise remains at a similar level.
Target sequence in this assay (Q9Y2T6 whole entry, species assumed): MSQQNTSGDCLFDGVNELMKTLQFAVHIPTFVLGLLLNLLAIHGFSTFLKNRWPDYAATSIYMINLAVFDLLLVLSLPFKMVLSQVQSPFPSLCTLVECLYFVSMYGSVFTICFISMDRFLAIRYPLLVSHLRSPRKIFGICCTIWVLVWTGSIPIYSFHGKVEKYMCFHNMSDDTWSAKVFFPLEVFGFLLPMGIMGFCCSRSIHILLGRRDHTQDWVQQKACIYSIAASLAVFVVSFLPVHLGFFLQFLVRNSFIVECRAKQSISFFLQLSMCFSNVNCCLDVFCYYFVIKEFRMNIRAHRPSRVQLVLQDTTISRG

[2] = tested on: empty virion K082 (no GPCR displayed); assay: CSOD negative control with empty virion K082 modified fiber; type: binding, HSV-1
From the text: Virions are functionalized to fiber surface via epoxy coupling, and the binding of respective small molecule antagonists B2 antagonist and Tocrifluor are studied in 1×PBS. First, the virions modified fiber tip was dipped into one well filled with 1×PBS buffer to establish a baseline. Subsequently, the fiber tip was switched from the buffer well to a sample well containing ligands to measure the binding or association process. At last, the fiber tip was switched back to the buffer well for dissociation studies. […] Solid lines are global fitting of the data with a first-order kinetic model. […] For both binding pairs, when no ligand is introduced, the baseline level is within the noise level, showing that the oscillation amplitude change was caused by the specific binding between the ligands and their corresponding receptors.

GPR55 [3] = target: T1, GPR55; assay: CSOD binding kinetics of a small molecule ligand to virion-displayed GPR55; set-up: made in house; host or cells: recombinant HSV-1 virions (VirD), made by collaborators at Johns Hopkins University; conditions: 1×PBS, global fitting with first-order kinetics
From the text: An inverted microscope (Olympus IX-70 with 40× objective) with a CCD camera (Pike F-032, Allied Vision) was used for recording 14-bit grayscale image sequences at a frame rate of 106.5. A customized plate with 2 PDMS wells shown in FIGS. 1A and 1B was mounted on a motorized microscope stage (MAC 6000 modular automation controller, Ludl Electronic Products LTD.). Two steel electrodes (1 cm×3 cm) were placed 1 cm apart inside the well, then blocked with agarose electrophoresis gel. A green LED (505 nm, 400 mW, Thorlabs M505L3) light was coupled into the fiber via a focusing lens. Fiber is dipped into analyte solution between the electrophoresis gels. To control the fiber and move the fiber between the 2 wells, the fiber was clamped to a motorized arm (A-LSQ075B, Zaber). A sinusoidal potential was applied with a function generator (33521A, Agilent). A USB data acquisition card (USB-6229, National Instruments) was used to record voltage and current.
The tip (about 1 cm) of an optical fiber thread (about 20 cm) was first soaked in acetone for 1 minute and then rinsed with DI water and dried. The polymer coating layer on the optical fiber was then stripped off with an optical fiber stripper. The bare fiber was etched by soaking it in 47% hydrofluoric acid for 29 minutes and 15 seconds for a diameter of approximately 15 μm. The etched fiber was later rinsed with DI water to wash off the hydrofluoric acid and then blown dry with nitrogen. The tip was cut to about 9 mm long. Before functionalization, the optical fiber was cleaned with oxygen plasma for 3 minutes.
The etched fiber was soaked in (3-glycidyloxypropyl)trimethoxysilane (epoxy) solution (2.5% volume percentage of epoxy in isopropanol) for 1 hour for surface functionalization. The fiber was then rinsed with PBS buffer. […]
By fitting the kinetic curves at different concentrations globally with first-order kinetics, the association rate constant (ka), dissociation rate constant (kd) as well as equilibrium constant (KD) for both binding pairs are calculated.
Target sequence in this assay (Q9Y2T6 whole entry): as the sequence (Q9Y2T6 whole entry, species assumed) above

Tocrifluor
Kd (GPR55 [1]): 160 ± 50 nM | binding to empty virion K082 [2]: binds to neither | association rate constant ka (GPR55 [3]): 9200 M⁻¹ s⁻¹ | dissociation rate constant kd (GPR55 [3]): 0.00081 s⁻¹ | Kd (GPR55 [3]; read-out: equilibrium constant KD): 89 nM
